The series can be described thus: Human HepG2 cell viability assay in 384 well format. The class given is toxicity, cell-based. Further details: dose 125 nL, time 70.5 hour; cytotoxicity at 70.5 h: concentration not given beside the values. The note with it: HepG2 cells, read-out: Inhibition.
With `COc1ccc(C(=O)c2cnc(C(C)C)n2C)cc1`, the cytotoxicity at 70.5 h came out at 17.7%. For `Cn1c2ccccc2c2ncn(CCN3CCOCC3)c(=O)c21`, the cytotoxicity at 70.5 h worked out at 11.8%. The result for `CCOn1c(SC(C)C)nc2ccccc2c1=O` reads -8.12%; that for `O=C(CN1CCN(C(=O)c2ccccc2)CC1)Nc1ncc(Br)cc1Br`, -1.02%; that for `CC(C)c1nnc(NC(=O)CCC(=O)NCC2CCCO2)s1` (stereo not given), -12.5%. The result for `CCSc1nc2ccccc2c(=O)n1OCC(=O)OC` reads -8.5%.

Consider `O=C(CN1CCOCC1)Nc1ncc(Br)cc1Br`, for which the cytotoxicity at 70.5 h is -5.32%. In the case of `COCCCN(Cc1ccccn1)S(=O)(=O)Cc1ccccc1`, the cytotoxicity at 70.5 h was -18.4%. Take `COc1ccc(Nc2c[nH]c(=O)[nH]c2=O)cc1`: the cytotoxicity at 70.5 h was found to be 4.35%. To `Cn1c(CC(=O)O)c(Sc2ccccc2)c2ccccc21` belongs -0.644%; to `COc1cccc(Oc2nc(C)c(C(=O)O)s2)c1OC`, -13.3%; to `Cn1nc(-c2ccccc2)c(Br)c1C(=O)O`, -23.2%. `O=C(O)Cn1ccc(=O)c2ccc(Cl)cc21`: the cytotoxicity at 70.5 h is -7.34%. In the case of `CC(C)CCc1n[nH]c(C(=O)O)c1Br`, the cytotoxicity at 70.5 h is -7.1%.

As for `CC(C)CCc1n[nH]c(C(=O)O)c1I`, the cytotoxicity at 70.5 h was -8.29%. Turning to `Cn1nc(-c2ccc(Cl)cc2)c(Br)c1C(=O)O`, the cytotoxicity at 70.5 h was -23.3%. As to `CC(C)Oc1ccc(CC2=N[C@](C)(CO)CO2)cc1`, the cytotoxicity at 70.5 h was determined as 21.4%. On to `Nc1nc2c(c3c1C(=O)NC3=O)CCCC2`, for which the cytotoxicity at 70.5 h was -9.66%. To `C/C(NC(=O)c1ccccn1)=C1\C(=O)C[C@@H]2[C@H]1C2(C)C` belongs -2.07%; to `Cc1c(C2N3C[C@]4(C)CN2C[C@](C)(C3)C4=O)[nH]c(=O)[nH]c1=O` (stereo not given in full), -11.7%.

`O=C(Cn1ccc2ccc(F)cc21)NC[C@@H]1CCCN2CCCC[C@H]12`: the cytotoxicity at 70.5 h turned out to be 8.28%. The result for `O=C(CCn1ccc2cc(Br)ccc21)NC[C@@H]1CCCN2CCCC[C@H]12` reads 19.3%; that for `COc1cccc2ccn(CC(=O)NCCC(C)C)c12`, 11%; that for `COc1cccc2ccn(CC(=O)NC(C)C)c12`, 11.3%.

Take `COCC(=O)N(Cc1ccc2cc[nH]c2c1)C1CC1`: the cytotoxicity at 70.5 h is -21%. Turning to `COc1c(C(N)=O)cn(C)c1-c1nc2cc(NC(C)=O)ccc2n1C`, the cytotoxicity at 70.5 h was -14.7%.

In the case of `CSCC[C@H](NC(=O)Cn1ccc2c(Br)cccc21)C(=O)O`, the cytotoxicity at 70.5 h is -21.8%. In the case of `Cc1nn(-c2ncnc3[nH]cnc23)c2c1C(CC(C)C)CC(=O)N2` (stereo not given), the cytotoxicity at 70.5 h was -2.59%. With `COc1ccc2c(ccn2CC(=O)NC[C@@H]2CCCN3CCCC[C@H]23)c1`, the cytotoxicity at 70.5 h is -7.27%. To `O=C(Cn1ccc2ccccc21)NC[C@@H]1CCCN2CCCC[C@H]12` belongs -10.1%. For `Cc1cccc2c1ccn2CC(=O)NC[C@@H]1CCCN2CCCC[C@H]12`, the cytotoxicity at 70.5 h was -6.63%. Turning to `O=C(NCCCO)c1cc(-c2ccc3c(c2)CCO3)n[nH]1`, the cytotoxicity at 70.5 h stood at 14.5%. `CC[S+](CC)[c-]1c(=O)[nH]c(=O)n(Cc2ccc(F)cc2)c1=O`: the cytotoxicity at 70.5 h was 3.21%. To `CN(C)c1no[n+]([O-])c1-c1ccccc1` belongs 20.3%; to `Cc1cc(NCCO)nc(-c2ccccc2O)n1`, 6.62%; to `COc1ccc2c(c1)[nH]c1c(N(C)CC3OCCO3)ncnc12`, 7.79%. Consider `CCSc1nnc(CCNC(=O)OC(C)(C)C)o1`, for which the cytotoxicity at 70.5 h came to 13%. The result for `COc1cccc(-c2nc(CC(=O)NC3(C)CCS(=O)(=O)C3)cs2)c1` (stereo not given) reads -8.05%; that for `O=C(O)CCNC(=O)N1CCc2c([nH]c3ccc(Cl)cc23)C1`, -6.59%. `CCOC(=O)COc1nc(CC(C)C)c2c(c1C#N)CCC2`: the cytotoxicity at 70.5 h was determined as 1.02%. The result for `C[C@@H](CO)NC(=O)c1ccc2nc(NS(C)(=O)=O)sc2c1` reads -2.43%. To `COc1ccc(-c2nc(C#N)c(N(C)C)o2)cc1S(=O)(=O)N1CCCC1` belongs 14.1%; to `Cc1ccc(NC(=O)CC2NC(N3CCc4ccccc43)=NC2=O)cc1` (stereo not given), -7.26%; to `O=C(c1ccccc1)N(CC1CC1)c1cccnc1`, -1.58%. To `O=C(c1nc(Cc2c[nH]c3ccccc23)no1)N1CCOCC1` belongs -3.8%; to `O=C(C1CC=CC1)N1CC[C@@H]2O[C@@H](COCC3CCOCC3)CC[C@@H]21`, 6.54%; to `COc1cccc(CN(C)C(=O)NCc2c(C)cc(C)[nH]c2=O)c1`, -4.51%. Turning to `CC(NC(=O)NCc1ccccc1)(C(=O)O)c1ccco1` (stereo not given), the cytotoxicity at 70.5 h was -9.81%. The result for `CCOc1ccnc(N2CCN(C(=O)c3ccoc3)CC2)n1` reads 18.6%; that for `Cc1nnc2n1CCN(C(=O)c1cc(C)n(-c3cccnc3)c1C)C2`, -1.82%; that for `COc1cc(C)nc(N2CCN(C(=O)c3cccc(C#N)c3)CC2)n1`, -5.09%. To `CCOc1ccnc(N2CCN(C(=O)c3cccnc3)CC2)n1` belongs -8.35%; to `CC(C)c1nccn1C1CCCN(C(=O)c2nccnc2N)C1` (stereo not given), 17.2%; to `Cc1ncncc1C(=O)N1CCOC(c2nc(C(C)C)n[nH]2)C1` (stereo not given), -4.74%. To `Cc1cc(C)n(CC2CN(CCOc3ccc(C#N)cc3)CCO2)n1` (stereo not given) belongs -4.48%; to `O=C(NCc1ccccc1Cn1cncn1)C1CCC1`, -4.18%.

`O=C(NCc1ccccc1Cn1cncn1)C1CCCCC1`: the cytotoxicity at 70.5 h is -9.09%. The result for `O=C(CCS(=O)(=O)C1CCCC1)NCc1ccccc1Cn1cncn1` reads -11%. With `Cc1nccn1-c1cc(CNC(=O)NCC2CCCO2)ccn1` (stereo not given), the cytotoxicity at 70.5 h was -0.7%. For the compound `OCCn1nccc1C1CCN(CCOc2cccc(F)c2)CC1`, the cytotoxicity at 70.5 h was -1.45%. To `Cc1ccc(C(C)NCc2c(C(C)C)nn(C)c2N2CCOCC2)o1` (stereo not given) belongs -5.88%; to `CC(C)c1nn(C)c(N(C)C)c1CNCc1cccc2c1OCO2`, -3.25%; to `Cc1ncsc1C(=O)NC1CCN(CC(N)=O)CC1`, -6.12%. The result for `O=C(c1cccnc1N1CCCCC1)N1CCCC(n2cccn2)C1` (stereo not given) reads 15.6%; that for `Cc1cccc(OCCNC(=O)CN2CCc3cncnc3C2)c1`, -7.19%; that for `Cc1cnn(CC2CCCN2C(=O)c2c(C)noc2C(C)C)c1` (stereo not given), 11.7%. To `c1ccc(-n2cc(CNCC3CCCN3c3cccnn3)nn2)cc1` (stereo not given) belongs -1.58%; to `CC(C)c1n[nH]c(C2CN(C(=O)c3cn4ccccc4n3)CCO2)n1` (stereo not given), 15.7%; to `CC(C)c1n[nH]c(C2CN(C(=O)c3cc(C(N)=O)cs3)CCO2)n1` (stereo not given), 0.559%. As to `CC(C)c1n[nH]c(C2CN(C(=O)c3cc(C4CC4)[nH]n3)CCO2)n1` (stereo not given), the cytotoxicity at 70.5 h is -10.5%. The result for `Cc1cnn(CC(C)NCc2nc(-c3cccs3)no2)c1` (stereo not given) reads -7.53%; that for `CC(Cn1cccn1)NCc1nc(-c2ccco2)no1` (stereo not given), -16.5%; that for `Cc1nc(C)n(CC2CN(Cc3cccc(OC(C)C)c3)CCO2)n1` (stereo not given), -10.6%. The result for `CC(C)c1ncc2c(n1)CN(Cc1nc(-c3ccsc3)no1)CC2` reads -13.7%. To `Cc1nc(C)n(CC2CN(Cc3ccccc3OC(C)C)CCO2)n1` (stereo not given) belongs -9.52%.

`CC(C)c1nccc(N2CCN(CC(=O)N3CCOCC3)CC2)n1`: the cytotoxicity at 70.5 h is -10.5%. The result for `CC(C)c1noc(C(C)N2CCN(Cc3cccs3)CC2)n1` (stereo not given) reads 12.6%. On to `COc1ccc(C)cc1CN1CCOC(Cn2nc(C)nc2C)C1` (stereo not given), for which the cytotoxicity at 70.5 h was -19.6%. The result for `Cc1nc(C)n(CC2CN(Cc3cccc4ccccc34)CCO2)n1` (stereo not given) reads -11.6%; that for `c1cc(CN2CCOC(Cn3cccn3)C2)c2c(c1)OCCO2` (stereo not given), -14.1%; that for `CCc1ccc(CNC(=O)NCc2nnc3n2CCC3)s1`, 17.1%.

Regarding `O=C(NCCc1ccc(Cl)s1)NCc1nnc2n1CCCC2`, the cytotoxicity at 70.5 h is -12.9%. The result for `Cc1cnc2c(S(=O)(=O)N(C)C3CCS(=O)(=O)C3)cccc2c1` (stereo not given) reads -16.4%; that for `CCC1CN(C(=O)CN2CCN(c3nccc(OC)n3)CC2)CCO1` (stereo not given), -12.3%; that for `CC(Cn1cccn1)NCc1nc(-c2ccsc2)no1` (stereo not given), 5.46%. The result for `COc1ccnc(N2CCN(CC(O)CN3CCOCC3)CC2)n1` (stereo not given) reads -8.1%. To `Cc1nc(C)n(CC2CCCN(Cc3cccc4c3OCCO4)C2)n1` (stereo not given) belongs 12%; to `Cc1nc(C)n(CC2CN(Cc3nc4ccccc4n3C)CCO2)n1` (stereo not given), -13.3%. For the compound `Cc1nc(C)n(CC2CN(Cc3ccccc3C#N)CCO2)n1` (stereo not given), the cytotoxicity at 70.5 h is -3.74%.

For the compound `CCCn1nc2c(cc1=O)CN(Cc1nc(C)c(C)o1)CC2`, the cytotoxicity at 70.5 h was -9.42%. For `O=C(c1cc(Cl)c[nH]1)N1CCCC(c2cc(C(F)(F)F)[nH]n2)C1` (stereo not given), the cytotoxicity at 70.5 h was 3.82%. The result for `CCSc1nnc([C@@H](N)CC(C)C)o1` reads -7.55%; that for `Cc1cccc(CS(=O)(=O)c2nnc([C@@H](N)Cc3ccccc3)o2)c1`, 12.4%. Turning to `CCOC(=O)CSc1nnc([C@@H](N)C(C)CC)o1` (stereo not given in full), the cytotoxicity at 70.5 h is -9.94%. As for `CCOC(=O)CSc1nnc([C@@H](N)C(C)C)o1`, the cytotoxicity at 70.5 h is -7.09%. The result for `CCOC(=O)CSc1nnc([C@@H](N)CC(C)C)o1` reads -6.75%; that for `Cc1ccc(C(CCNCCCN(C)C)C2CCOC(C)(C)C2)cc1` (stereo not given), 30.6%.

For the compound `Cc1cnc(N2CCCC3(CCCN3CC(=O)N(C)C)C2)nc1` (stereo not given), the cytotoxicity at 70.5 h came out at 12.8%. To `c1cnc(N2CC[C@@H](N3CCOCC3)[C@@H]2Cc2ccncc2)nc1` belongs 11.8%. As for `Fc1cnc(N2CC[C@@H](N3CCOCC3)[C@@H]2Cc2cccnc2)nc1`, the cytotoxicity at 70.5 h worked out at 9.63%.

The values above are taken from ChEMBL document CHEMBL3507680, “University of Dundee, Gates Library screen for HepG2 cell viability”.
